A short description of data set [1]: Cytotoxicity against human KG1a cells. The format is functional, cell-based. The settings on record: KG-1a.
The test system of data set [2] is C6. In words: Cytotoxicity against rat C6 cells. The format is functional, cell-based.
For data set [3], the system named is HL-60. In words: Cytotoxicity against human HL60 cells. The format is functional, cell-based.
The nature of data set [4]: Half life in rat plasma. It counts as ADME, cell-free.
Data set [5] in a line: Chemical stability of the compound in p-toluenesulfonic acid in dichloromethane after 48 hrs. It counts as physicochemical.
Data set [6] can be described thus: Half life in human liver microsomes by HPLC-MS/MS analysis in presence of NADPH. It counts as ADME.
The subject of data set [7] is HL-60. In words: Cytotoxicity against human HL60/A cells. The format is functional, cell-based.
The nature of data set [8]: Metabolic stability in rat plasma assessed as compound degradation after 420 mins. It counts as ADME, cell-free. The settings on record: read-out: Drug degradation.

A value given as a limit tells only on which side of the number the result lay.

A word on the IC50: it is the point on the concentration scale where inhibition reaches its midpoint. A word on the half-life: it is the time needed for the level to fall by half in the phase considered.

For the molecule `C=C1C(=O)O[C@H]2[C@H]1CC/C(C(F)(F)F)=C\CC[C@@]1(C)O[C@@H]21`, the IC50 was determined as 2 µM in data set [1], 3 µM in data set [2], 2.1 µM in data set [3] and 2 µM in data set [7]. Besides, the half-life in data set [4] came to 0.338 h; in data set [6], 1.43 h. Further, in data set [5], the Stability result is given as “Stable”.

On to `C=C1C(=O)O[C@@H]2/C=C(\C)CC/C=C(\C)CC[C@@H]12` [COSTUNOLIDE], for which the IC50 in data set [1] came out at 4.1 µM; in data set [2] it was 4.1 µM; in data set [3], 2.1 µM; in data set [7], 5.9 µM.

On to `C=C1C(=O)O[C@@H]2/C=C(\C)CC/C=C(/C(F)(F)F)CC[C@@H]12`, for which the IC50 in data set [1] turned out to be 5.1 µM; in data set [2] it was 5.4 µM; in data set [3], 5 µM; in data set [7] it was 4.9 µM.

In turn, `C/C1=C\CC[C@@]2(C)O[C@H]2[C@H]2OC(=O)[C@@H](C)[C@@H]2CC1` gave a half-life in data set [4] of over 7 h. For the same molecule, in data set [8], the metabolised at 7 h worked out at 20%.

Turning to `C=C1C(=O)O[C@@H]2C3O[C@]3(C)CC/C=C(\C)CC[C@@H]12` (some centres undefined), the IC50 was 2.3 µM in data set [1], 2.5 µM in data set [2], 2 µM in data set [3] and 2 µM in data set [7]. The half-life was determined as 0.278 h in data set [4] and 1.39 h in data set [6]. Besides, the Stability result in data set [5] was “Unstable”.

In the case of `C=C1C(=O)O[C@H]2[C@H]1CC/C(CF)=C\CC[C@@]1(C)O[C@@H]21`, the IC50 was determined as 2.9 µM in data set [1], 2.8 µM in data set [2], 2 µM in data set [3] and 1.5 µM in data set [7]. In addition, the Stability entry in data set [5] is “Stable”.

As for `C=C1CC[C@H]2C(=C)C(=O)O[C@@H]2[C@@H]2O[C@]2(C)CCC1F` (some centres undefined), the IC50 came out at 8.6 µM in data set [1], 11.3 µM in data set [2], 11.9 µM in data set [3] and 9.2 µM in data set [7]. In addition, in data set [5], the Stability result is given as “Stable”.

Turning to `C=C1C(=O)O[C@H]2[C@H]1CC/C(C(F)F)=C\CC[C@@]1(C)O[C@@H]21`, the IC50 in data set [1] came to 1.8 µM; in data set [2], 3.4 µM; in data set [3] it was 2 µM; in data set [7], 2.1 µM. Moreover, the Stability result in data set [5] is “Stable”.
